In patent publication US12673946B2, “Pyrimidin-4(3H)-one derivatives as TRPV4 antagonists” (RaQualia Pharma Inc., priority 2020, dated 2026):

Biological target: T1, human TRPV4 (Homo sapiens, UniProt Q9HBA0)
T1 construct: host or cells: tetracycline-inducible Flp-In T-REx 293 cells
Test: Hypotonicity-induced Ca2+ influx (Fluo-4, FDSS)
Assay type: cell-based
Method in brief: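 Flp-In T-REx 293 cells with tetracycline-induced human TRPV4, loaded with Fluo-4 for 60 min at 25 °C. Compound added 5 min before hypotonic mannitol/CaCl2 solution. Ca2+ signal recorded for 4.5 min on FDSS.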

[1] = Flp-In T-REx 293 cells expressing human TRPV4, examples listed under heading 'Human IC50<50 nM'
[2] = Flp-In T-REx 293 cells stably expressing human TRPV4, compounds listed by potency bin (<10 nM Tables 96-1/96-2, <3 nM Table 97)

T1 sequence (Q9HBA0 whole entry): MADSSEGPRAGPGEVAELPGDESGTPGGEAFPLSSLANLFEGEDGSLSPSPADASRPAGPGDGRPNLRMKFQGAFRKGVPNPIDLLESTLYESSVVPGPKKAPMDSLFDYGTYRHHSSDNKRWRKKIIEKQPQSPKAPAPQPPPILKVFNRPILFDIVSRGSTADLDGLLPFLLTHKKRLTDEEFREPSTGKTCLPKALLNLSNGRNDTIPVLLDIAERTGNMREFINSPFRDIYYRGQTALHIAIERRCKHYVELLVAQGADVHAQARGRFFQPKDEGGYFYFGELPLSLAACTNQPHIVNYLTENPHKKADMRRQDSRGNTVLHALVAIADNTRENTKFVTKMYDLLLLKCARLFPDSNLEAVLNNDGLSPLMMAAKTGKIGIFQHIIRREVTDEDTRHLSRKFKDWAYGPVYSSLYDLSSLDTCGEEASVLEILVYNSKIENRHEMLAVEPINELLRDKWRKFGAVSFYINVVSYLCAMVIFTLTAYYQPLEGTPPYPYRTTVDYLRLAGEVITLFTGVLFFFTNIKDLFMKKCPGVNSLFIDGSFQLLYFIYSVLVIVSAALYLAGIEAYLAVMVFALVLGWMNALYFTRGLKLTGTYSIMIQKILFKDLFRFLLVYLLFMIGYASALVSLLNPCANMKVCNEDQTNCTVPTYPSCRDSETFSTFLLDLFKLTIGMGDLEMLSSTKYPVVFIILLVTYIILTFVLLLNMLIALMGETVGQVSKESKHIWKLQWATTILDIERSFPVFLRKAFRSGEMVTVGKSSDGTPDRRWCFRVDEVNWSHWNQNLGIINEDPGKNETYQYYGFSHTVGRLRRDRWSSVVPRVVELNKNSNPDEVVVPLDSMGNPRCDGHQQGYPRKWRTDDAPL

IC50 [1] | IC50 [2] | Structure (SMILES)
< 50 nM |  | O=C(C(O)c1cccc(Oc2ccccc2)c1)N1CCCc2nc(C3(c4cccc(F)c4)CC3)[nH]c(=O)c2C1 (stereo not shown) [17-52]
< 50 nM | < 10 nM | CC(C)c1cncc(C2(c3nc4c(c(=O)[nH]3)CN(C(=O)C(O)c3cccc(Cl)c3F)CCC4)CC2)c1 (stereo not shown) [19-12]
< 50 nM | < 10 nM | O=C(N1CCc2nc(C3(c4cncc(-c5ccccc5)c4)CC3)[nH]c(=O)c2C1)C(F)(F)c1cccc(Cl)c1 [22-5]
< 50 nM | < 10 nM | O=C([C@H](O)c1cccc(C(F)(F)F)c1)N1CCCc2nc(C3(c4cccc(-c5ccc6sccc6c5)c4)CC3)[nH]c(=O)c2C1 [17-96]
< 50 nM | < 10 nM | O=C([C@H](O)c1cccc(Cl)c1)N1CCCc2nc(C3(c4cccc(-c5cccc(Cl)c5)c4)CC3)[nH]c(=O)c2C1 [40-6]
< 50 nM | < 10 nM | CC(C)c1cncc(C2(c3nc4c(c(=O)[nH]3)CN(C(=O)[C@H](O)c3cccc(Cl)c3)CC4)CC2)c1 [25-3]
< 50 nM | < 3 nM | CC(C)c1csc(C2(c3nc4c(c(=O)[nH]3)CN(C(=O)C(O)c3cccc(Cl)c3F)CCC4)CC2)c1 (stereo not shown) [18-17]
< 50 nM | < 3 nM | O=C([C@H](O)c1cccc(Cl)c1)N1CCCc2nc(C3(c4cccc(-c5cc6ccccc6o5)c4)CC3)[nH]c(=O)c2C1 [40-17]
< 50 nM | < 10 nM | O=C(Cc1cccc(-c2cccc(Cl)c2)c1)N1CCCc2nc(C3(c4ccccc4)CC3)[nH]c(=O)c2C1 [17-136]
< 50 nM | < 10 nM | O=C([C@H](O)c1cccc(-c2ccc(C(F)(F)F)cc2)c1)N1CCCc2nc(C3(c4cccc(Cl)c4)CC3)[nH]c(=O)c2C1 [50-24]
< 50 nM | < 10 nM | O=C([C@H](O)c1cccc(Cl)c1)N1CCCc2nc(C3(c4cccc(-c5cc6ccccc6s5)c4)CC3)[nH]c(=O)c2C1 [40-18]
< 50 nM | < 10 nM | CC(C)(C)c1cccc(-c2cccc(CC(=O)N3CCc4nc(C5(c6cccc(Cl)c6)CC5)[nH]c(=O)c4C3)c2)c1 [45-13]
< 50 nM | < 3 nM | O=C([C@H](O)c1cccc(-c2cccc(C3CC3)c2)c1)N1CCCc2nc(C3(c4cccs4)CC3)[nH]c(=O)c2C1 [53-6]
< 50 nM | < 10 nM | O=C(C(O)c1cccc(SC(F)(F)F)c1)N1CCCc2nc(C3(c4cccc(Cl)c4)CC3)[nH]c(=O)c2C1 (stereo not shown) [17-28]
< 50 nM |  | O=C([C@H](O)c1cccc(Cl)c1)N1CCCc2nc(C3(c4cncc(-c5cnsc5)c4)CC3)[nH]c(=O)c2C1 [19-10]
< 50 nM | < 10 nM | O=C(C(O)c1cccc(-c2cccc(OC(F)(F)F)c2)c1)N1CCCc2nc(C3(c4cccc(F)c4)CC3)[nH]c(=O)c2C1 (stereo not shown) [17-15]
< 50 nM | < 3 nM | CC(C)c1cccc(C2(c3nc4c(c(=O)[nH]3)CN(C(=O)[C@H](O)c3cccc(C(F)(F)F)c3)CCC4)CC2)c1 [31-8]
< 50 nM | < 3 nM | CS(=O)(=O)c1cccc(-c2cccc(C3(c4nc5c(c(=O)[nH]4)CN(C(=O)[C@H](O)c4cccc(C(F)(F)F)c4)CCC5)CC3)c2)c1 [42-15]
< 50 nM | < 10 nM | O=C([C@H](O)c1cccc(-c2cc(Cl)cc(OC(F)(F)F)c2)c1)N1CCCc2nc(C3(c4ccccc4)CC3)[nH]c(=O)c2C1 [49-34]

IC50 [1] | IC50 [2] | Structure (SMILES)
< 50 nM | < 10 nM | CC(C)c1csc(C2(c3nc4c(c(=O)[nH]3)CN(C(=O)C(O)c3cccc(C(F)(F)F)c3F)CCC4)CC2)c1 (stereo not shown) [18-16]
< 50 nM | < 10 nM | CC(C)c1cncc(C2(c3nc4c(c(=O)[nH]3)CN(C(=O)[C@H](O)c3cccc(C(F)(F)F)c3)CC4)CC2)c1 [28-3]
< 50 nM |  | O=C(C(O)c1cccc(-c2cccc(C(F)(F)F)c2Cl)c1)N1CCc2nc(C3(c4ccccc4)CC3)[nH]c(=O)c2C1 (stereo not shown) [44-46]
< 50 nM | < 3 nM | O=C([C@H](O)c1cccc(-c2cc(F)cc(Cl)c2)c1)N1CCCc2nc(C3(c4ccccc4)CC3)[nH]c(=O)c2C1 [49-27]
< 50 nM | < 10 nM | O=C(Cc1cccc(-c2ccccc2)c1)N1CCCc2nc(C3(c4cccc(Cl)c4)CC3)[nH]c(=O)c2C1 [17-84]
< 50 nM | < 10 nM | CC(C)(C)c1cccc(C(O)C(=O)N2CCc3nc(C4(c5cccc(Cl)c5)CC4)[nH]c(=O)c3C2)c1 (stereo not shown) [14-11]
< 50 nM | < 10 nM | CC(C)c1cncc(C2(c3nc4c(c(=O)[nH]3)CN(C(=O)[C@H](O)c3cccc(-c5ccc(C(F)(F)F)nc5)c3)CC4)CC2)c1 [47-5]
< 50 nM | < 3 nM | O=C(NC1CCCCC1)N1CC=C(c2cccc(C3(c4nc5c(c(=O)[nH]4)CN(C(=O)[C@H](O)c4cccc(C(F)(F)F)c4)CCC5)CC3)c2)CC1 [42-84]
< 50 nM |  | CN(C)Cc1ccc(-c2cccc(C3(c4nc5c(c(=O)[nH]4)CN(C(=O)[C@H](O)c4cccc(C(F)(F)F)c4)CCC5)CC3)c2)cc1 [42-53]
< 50 nM |  | O=C(C(O)c1cccc(Cl)c1F)N1CCCc2nc(C3(c4ccccc4)CC3)[nH]c(=O)c2C1 (stereo not shown) [17-42]
< 50 nM |  | O=C(Cc1cccc(Oc2ccccc2)c1)N1CCCc2nc(C3(c4ccccc4)CC3)[nH]c(=O)c2C1 [17-144]
< 50 nM |  | CC(C)(C)c1ccc(-c2cccc(C(O)C(=O)N3CCc4nc(C5(c6ccccc6)CC5)[nH]c(=O)c4C3)c2)cc1 (stereo not shown) [44-42]
< 50 nM | < 3 nM | O=C([C@H](O)c1cccc(Cl)c1)N1CCCc2nc(C3(c4cccc(OCc5ccccc5)c4)CC3)[nH]c(=O)c2C1 [17-91]
< 50 nM | < 3 nM | O=C([C@H](O)c1cccc(-c2coc3ccccc23)c1)N1CCCc2nc(C3(c4cccc(Cl)c4)CC3)[nH]c(=O)c2C1 [50-8]
< 50 nM |  | O=C(C(O)c1cccc(Br)c1)N1CCCc2nc(C3(c4ccccc4)CC3)[nH]c(=O)c2C1 (stereo not shown) [17-55]
< 50 nM | < 3 nM | O=C([C@H](O)c1cccc(-c2cc(Cl)cc(OC(F)(F)F)c2)c1)N1CCc2nc(C3(c4ccccc4)CC3)[nH]c(=O)c2C1 [44-98]
< 50 nM | < 10 nM | O=C(C(O)c1cccc(-c2cccc(C(F)(F)F)n2)c1)N1CCc2nc(C3(c4ccccc4)CC3)[nH]c(=O)c2C1 (stereo not shown) [44-4]
< 50 nM | < 10 nM | O=C(C(O)c1cccc(C(F)(F)F)c1F)N1CCCc2nc(C3(c4cccc(F)c4)CC3)[nH]c(=O)c2C1 (stereo not shown) [17-10]
< 50 nM | < 3 nM | O=C(C(O)c1cccc(C(F)(F)F)c1F)N1CCCc2nc(C3(c4cccs4)CC3)[nH]c(=O)c2C1 (stereo not shown) [18-3]

IC50 [1] | IC50 [2] | Structure (SMILES)
< 50 nM | < 10 nM | O=C(C(O)c1cccc(Oc2ccccc2)c1)N1CCCc2nc(C3(c4cccc(Cl)c4)CC3)[nH]c(=O)c2C1 (stereo not shown) [17-33]
< 50 nM | < 10 nM | O=C([C@H](O)c1cccc(-c2cccc(C3CC3)c2)c1)N1CCc2nc(C3(c4ccccc4)CC3)[nH]c(=O)c2C1 [44-105]
< 50 nM | < 10 nM | O=C([C@H](O)c1cccc(Cl)c1)N1CCCc2nc(C3(c4cccc(-c5ccc(C(F)(F)F)cc5)c4)CC3)[nH]c(=O)c2C1 [40-8]
< 50 nM | < 10 nM | O=C([C@H](O)c1cccc(C(F)(F)F)c1)N1CCCc2nc(C3(c4cccc(-c5cncc(C(F)(F)F)c5)c4)CC3)[nH]c(=O)c2C1 [42-45]
< 50 nM | < 10 nM | Cc1ccc(-c2cccc([C@@H](O)C(=O)N3CCCc4nc(C5(c6ccccc6)CC5)[nH]c(=O)c4C3)c2)cc1C [49-48]
< 50 nM | < 10 nM | CC(C)c1csc(C2(c3nc4c(c(=O)[nH]3)CN(C(=O)C(O)c3cccc(S(F)(F)(F)(F)F)c3)CCC4)CC2)c1 (stereo not shown) [18-18]
< 50 nM |  | O=C(C(O)c1cccc(-c2ccccc2C(F)(F)F)c1)N1CCc2nc(C3(c4ccccc4)CC3)[nH]c(=O)c2C1 (stereo not shown) [44-54]
< 50 nM |  | O=C(C(O)c1cccc(Oc2cccc(C(F)(F)F)c2)c1)N1CCc2nc(C3(c4ccccc4)CC3)[nH]c(=O)c2C1 (stereo not shown) [14-14]
< 50 nM | < 3 nM | CC(C)c1cccc(C2(c3nc4c(c(=O)[nH]3)CN(C(=O)[C@H](O)c3cccc(-c5ccnc(C(F)(F)F)c5)c3)CCC4)CC2)c1 [51-6]
< 50 nM | < 10 nM | CCc1csc(C2(c3nc4c(c(=O)[nH]3)CN(C(=O)[C@H](O)c3cccc(C(F)(F)F)c3)CC4)CC2)c1 [15-5]
< 50 nM | < 10 nM | CC(C)c1cncc(C2(c3nc4c(c(=O)[nH]3)CN(C(=O)C(F)(F)c3cccc(C(F)(F)F)c3)CC4)CC2)c1 [22-9]
< 50 nM |  | CC(C)c1cccc(C2(c3nc4c(c(=O)[nH]3)CN(C(=O)C(O)c3cccc(SC(F)(F)F)c3)CCC4)CC2)c1 (stereo not shown) [17-44]
< 50 nM | < 10 nM | O=C(C(O)c1cccc(-c2cccc(C(F)(F)F)c2)c1)N1CCCc2nc(C3(c4cccc(Cl)c4)CC3)[nH]c(=O)c2C1 (stereo not shown) [17-16]
< 50 nM | < 10 nM | O=C(Cc1cccc(-c2ccc(Cl)cc2)c1)N1CCCc2nc(C3(c4ccccc4)CC3)[nH]c(=O)c2C1 [17-135]
< 50 nM | < 10 nM | O=C([C@H](O)c1cccc(-c2cccc(OC(F)(F)F)c2)c1)N1CCc2nc(C3(c4cccc(Cl)c4)CC3)[nH]c(=O)c2C1 [45-7]
< 50 nM | < 3 nM | N#Cc1ccc(-c2cccc(C3(c4nc5c(c(=O)[nH]4)CN(C(=O)[C@H](O)c4cccc(C(F)(F)F)c4)CCC5)CC3)c2)cn1 [42-55]
< 50 nM | < 10 nM | Cc1cccc(-c2cccc(C3(c4nc5c(c(=O)[nH]4)CN(C(=O)[C@H](O)c4cccc(C(F)(F)F)c4)CCC5)CC3)c2)c1 [42-64]
< 50 nM | < 10 nM | CC(C)N(Cc1ccccc1)C(=O)c1csc(C2(c3nc4c(c(=O)[nH]3)CN(C(=O)[C@H](O)c3cccc(C(F)(F)F)c3)CCC4)CC2)c1 [59-1]
< 50 nM | < 10 nM | O=C([C@H](O)c1cccc(Cl)c1)N1CCc2nc(C3(c4cncc(C5CCC(F)(F)CC5)c4)CC3)[nH]c(=O)c2C1 [25-4]
